Data as given in the kinase profiling compilation of Christmann-Franck et al. (2016).
Each block holds one compound with its values, some of them ahead of it.

Experiments:
Test in all cases: radiometric filter-binding kinase assay
[1] = test system: AKT1 (human), P31749 [S473D]
AURKB (human) = AURKB (human) (UniProt Q96GD4)
CDK2 CCNA2 (human) = CDK2 CCNA2 (human) (UniProt P20248+P24941)
CHEK1 (human) = CHEK1 (human) (UniProt O14757)
CHEK2 (human) = CHEK2 (human) (UniProt O96017)
CSK (human) = CSK (human) (UniProt P41240)
CaMK1 (human) = CaMK1 (human) (UniProt Q14012)
Sequence of CaMK1 (human) (Q14012 whole entry, looked up): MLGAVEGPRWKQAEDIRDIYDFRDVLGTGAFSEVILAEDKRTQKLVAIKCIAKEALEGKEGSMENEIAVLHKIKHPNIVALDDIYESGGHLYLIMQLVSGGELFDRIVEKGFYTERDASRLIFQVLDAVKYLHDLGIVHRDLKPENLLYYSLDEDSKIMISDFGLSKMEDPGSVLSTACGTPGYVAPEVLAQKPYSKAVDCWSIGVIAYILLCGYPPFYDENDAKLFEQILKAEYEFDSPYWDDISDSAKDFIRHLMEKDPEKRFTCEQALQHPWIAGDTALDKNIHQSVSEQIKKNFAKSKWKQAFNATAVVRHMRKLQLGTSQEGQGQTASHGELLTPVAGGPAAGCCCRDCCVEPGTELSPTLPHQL

DYRK3 (human) = DYRK3 (human) (UniProt O43781)
EPHA2 (human) = EPHA2 (human) (UniProt P29317)
EPHB3 (human) = EPHB3 (human) (UniProt P54753)
IKBKB (human) = IKBKB (human) (UniProt O14920)
LCK (mouse) = details: accession and sequence are those of the human protein
MAP2K1 (human) = MAP2K1 (human) (UniProt Q02750)
Sequence of MAP2K1 (human) (Q02750 whole entry, looked up): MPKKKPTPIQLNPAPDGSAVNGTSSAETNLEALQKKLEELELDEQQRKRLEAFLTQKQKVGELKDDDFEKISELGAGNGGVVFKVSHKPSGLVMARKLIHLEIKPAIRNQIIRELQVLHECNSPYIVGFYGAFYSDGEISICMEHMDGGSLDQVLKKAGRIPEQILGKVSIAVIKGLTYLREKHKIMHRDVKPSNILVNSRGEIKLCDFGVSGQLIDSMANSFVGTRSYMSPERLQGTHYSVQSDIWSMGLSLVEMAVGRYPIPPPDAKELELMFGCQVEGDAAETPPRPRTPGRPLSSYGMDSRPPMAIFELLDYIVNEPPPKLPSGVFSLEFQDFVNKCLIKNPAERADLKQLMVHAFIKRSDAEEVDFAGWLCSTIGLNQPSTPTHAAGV

MAPK8 (human) = MAPK8 (human) (UniProt P45983)
MST4 (human) = MST4 (human) (UniProt Q9P289)
Sequence of MST4 (human) (Q9P289 whole entry, looked up): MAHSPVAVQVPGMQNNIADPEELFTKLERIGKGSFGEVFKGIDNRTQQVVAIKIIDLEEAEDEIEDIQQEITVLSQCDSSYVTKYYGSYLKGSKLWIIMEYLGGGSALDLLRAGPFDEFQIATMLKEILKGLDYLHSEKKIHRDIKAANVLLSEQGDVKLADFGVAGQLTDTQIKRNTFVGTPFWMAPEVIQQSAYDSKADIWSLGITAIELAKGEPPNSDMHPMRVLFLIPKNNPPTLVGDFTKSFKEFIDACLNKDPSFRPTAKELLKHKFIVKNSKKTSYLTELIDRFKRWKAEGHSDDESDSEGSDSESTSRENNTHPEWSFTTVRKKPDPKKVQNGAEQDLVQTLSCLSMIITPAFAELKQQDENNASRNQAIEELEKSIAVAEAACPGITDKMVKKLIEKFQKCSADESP

MYLK (human) = MYLK (human) (UniProt Q15746)
PAK4 (human) = PAK4 (human) (UniProt O96013)
PAK6 (human) = PAK6 (human) (UniProt Q9NQU5)
Sequence of PAK6 (human) (Q9NQU5 whole entry, looked up): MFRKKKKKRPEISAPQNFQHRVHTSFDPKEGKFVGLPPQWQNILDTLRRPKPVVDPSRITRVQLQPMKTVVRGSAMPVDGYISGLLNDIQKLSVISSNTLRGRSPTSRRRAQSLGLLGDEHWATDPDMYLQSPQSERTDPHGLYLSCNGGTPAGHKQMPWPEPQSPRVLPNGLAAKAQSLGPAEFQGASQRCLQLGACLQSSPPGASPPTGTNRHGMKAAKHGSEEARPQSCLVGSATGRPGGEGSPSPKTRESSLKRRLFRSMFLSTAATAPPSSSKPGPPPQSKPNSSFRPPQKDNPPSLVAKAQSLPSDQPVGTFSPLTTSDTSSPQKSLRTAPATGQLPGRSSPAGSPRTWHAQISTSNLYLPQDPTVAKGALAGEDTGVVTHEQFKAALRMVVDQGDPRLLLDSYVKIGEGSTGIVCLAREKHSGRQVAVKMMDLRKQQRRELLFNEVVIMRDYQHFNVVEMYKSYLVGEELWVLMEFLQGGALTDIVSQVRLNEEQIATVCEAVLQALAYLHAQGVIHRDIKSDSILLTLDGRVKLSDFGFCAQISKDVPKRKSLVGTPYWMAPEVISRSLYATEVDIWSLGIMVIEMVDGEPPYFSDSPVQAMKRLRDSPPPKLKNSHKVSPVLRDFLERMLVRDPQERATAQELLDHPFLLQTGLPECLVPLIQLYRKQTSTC

PKN2 (human) = PKN2 (human) (UniProt Q16513)
Sequence of PKN2 (human) (Q16513 whole entry, looked up): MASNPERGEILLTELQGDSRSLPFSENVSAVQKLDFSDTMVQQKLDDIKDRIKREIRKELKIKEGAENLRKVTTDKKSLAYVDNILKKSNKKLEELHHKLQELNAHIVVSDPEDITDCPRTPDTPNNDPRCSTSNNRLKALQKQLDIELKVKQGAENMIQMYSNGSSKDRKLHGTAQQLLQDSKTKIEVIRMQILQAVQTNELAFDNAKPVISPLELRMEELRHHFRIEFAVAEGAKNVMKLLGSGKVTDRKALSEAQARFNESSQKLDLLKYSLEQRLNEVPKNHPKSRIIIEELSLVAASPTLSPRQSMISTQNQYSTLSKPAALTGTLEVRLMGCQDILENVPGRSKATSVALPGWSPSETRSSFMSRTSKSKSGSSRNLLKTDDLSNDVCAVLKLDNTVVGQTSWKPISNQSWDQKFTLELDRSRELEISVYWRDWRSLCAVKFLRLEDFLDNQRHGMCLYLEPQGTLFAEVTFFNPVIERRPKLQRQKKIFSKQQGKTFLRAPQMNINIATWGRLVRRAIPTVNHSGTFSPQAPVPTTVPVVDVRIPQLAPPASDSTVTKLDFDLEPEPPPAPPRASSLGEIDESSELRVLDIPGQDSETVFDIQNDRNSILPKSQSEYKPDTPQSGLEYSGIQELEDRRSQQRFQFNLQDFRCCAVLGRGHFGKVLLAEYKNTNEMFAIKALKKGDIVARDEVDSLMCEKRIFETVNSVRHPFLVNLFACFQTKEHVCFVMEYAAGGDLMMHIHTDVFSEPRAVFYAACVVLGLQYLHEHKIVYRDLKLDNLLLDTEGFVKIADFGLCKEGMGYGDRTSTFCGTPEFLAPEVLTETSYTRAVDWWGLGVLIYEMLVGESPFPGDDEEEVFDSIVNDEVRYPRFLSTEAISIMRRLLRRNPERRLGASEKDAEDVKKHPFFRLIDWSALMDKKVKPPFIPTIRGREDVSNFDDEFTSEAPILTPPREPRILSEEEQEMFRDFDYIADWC

ROCK2 (rat) = details: accession and sequence are those of the human protein
RPS6KA3 KD1 KD2 (human) = RPS6KA3 KD1 KD2 (human) (UniProt P51812)
Sequence of RPS6KA3 KD1 KD2 (human) (P51812 whole entry, looked up): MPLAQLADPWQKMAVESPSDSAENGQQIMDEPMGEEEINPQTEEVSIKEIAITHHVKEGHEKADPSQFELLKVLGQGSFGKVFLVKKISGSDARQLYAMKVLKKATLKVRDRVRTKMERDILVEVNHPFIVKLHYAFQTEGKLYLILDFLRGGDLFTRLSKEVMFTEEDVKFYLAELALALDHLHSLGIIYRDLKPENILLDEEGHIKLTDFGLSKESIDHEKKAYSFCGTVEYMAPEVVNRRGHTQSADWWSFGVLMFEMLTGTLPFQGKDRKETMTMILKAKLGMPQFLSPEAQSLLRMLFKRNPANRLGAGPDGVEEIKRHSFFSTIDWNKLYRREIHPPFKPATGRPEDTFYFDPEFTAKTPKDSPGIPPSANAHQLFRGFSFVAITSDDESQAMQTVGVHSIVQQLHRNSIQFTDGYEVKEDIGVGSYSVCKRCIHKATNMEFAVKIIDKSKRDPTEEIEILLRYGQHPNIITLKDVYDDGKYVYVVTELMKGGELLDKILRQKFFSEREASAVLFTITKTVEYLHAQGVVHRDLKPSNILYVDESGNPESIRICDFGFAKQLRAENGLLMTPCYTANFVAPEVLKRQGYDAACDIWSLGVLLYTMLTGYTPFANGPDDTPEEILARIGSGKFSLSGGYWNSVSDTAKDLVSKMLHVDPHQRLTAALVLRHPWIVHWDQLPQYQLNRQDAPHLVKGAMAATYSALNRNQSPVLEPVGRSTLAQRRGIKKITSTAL

SRC (human) = SRC (human) (UniProt P12931)
TBK1 (human) = TBK1 (human) (UniProt Q9UHD2)

Sequence of CHEK2 (human) (O96017 whole entry, looked up): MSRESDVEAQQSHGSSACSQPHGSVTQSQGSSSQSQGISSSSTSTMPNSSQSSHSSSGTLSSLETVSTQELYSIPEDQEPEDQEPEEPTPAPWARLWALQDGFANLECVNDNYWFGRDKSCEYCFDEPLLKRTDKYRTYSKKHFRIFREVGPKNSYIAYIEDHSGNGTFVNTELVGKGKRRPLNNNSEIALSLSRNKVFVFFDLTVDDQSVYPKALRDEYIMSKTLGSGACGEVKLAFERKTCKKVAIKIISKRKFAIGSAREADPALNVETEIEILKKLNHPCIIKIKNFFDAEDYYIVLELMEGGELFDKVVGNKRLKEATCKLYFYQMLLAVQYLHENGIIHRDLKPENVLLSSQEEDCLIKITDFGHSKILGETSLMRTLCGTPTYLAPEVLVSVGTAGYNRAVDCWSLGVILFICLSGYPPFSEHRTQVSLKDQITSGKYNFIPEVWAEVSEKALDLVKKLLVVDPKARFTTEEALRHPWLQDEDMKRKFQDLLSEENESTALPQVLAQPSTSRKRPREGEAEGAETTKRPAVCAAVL
Sequence of AURKB (human) (Q96GD4 whole entry, looked up): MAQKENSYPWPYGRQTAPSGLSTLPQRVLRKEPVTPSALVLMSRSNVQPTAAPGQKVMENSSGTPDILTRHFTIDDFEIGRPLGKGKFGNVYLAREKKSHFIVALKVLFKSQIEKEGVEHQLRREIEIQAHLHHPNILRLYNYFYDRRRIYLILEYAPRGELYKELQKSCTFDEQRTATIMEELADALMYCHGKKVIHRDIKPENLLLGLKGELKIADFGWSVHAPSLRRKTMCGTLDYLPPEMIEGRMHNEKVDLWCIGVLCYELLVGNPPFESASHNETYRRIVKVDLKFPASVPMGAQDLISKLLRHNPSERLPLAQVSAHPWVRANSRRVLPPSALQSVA
Sequence of AKT1 (human), P31749 [S473D] (P31749 whole entry S473D, looked up): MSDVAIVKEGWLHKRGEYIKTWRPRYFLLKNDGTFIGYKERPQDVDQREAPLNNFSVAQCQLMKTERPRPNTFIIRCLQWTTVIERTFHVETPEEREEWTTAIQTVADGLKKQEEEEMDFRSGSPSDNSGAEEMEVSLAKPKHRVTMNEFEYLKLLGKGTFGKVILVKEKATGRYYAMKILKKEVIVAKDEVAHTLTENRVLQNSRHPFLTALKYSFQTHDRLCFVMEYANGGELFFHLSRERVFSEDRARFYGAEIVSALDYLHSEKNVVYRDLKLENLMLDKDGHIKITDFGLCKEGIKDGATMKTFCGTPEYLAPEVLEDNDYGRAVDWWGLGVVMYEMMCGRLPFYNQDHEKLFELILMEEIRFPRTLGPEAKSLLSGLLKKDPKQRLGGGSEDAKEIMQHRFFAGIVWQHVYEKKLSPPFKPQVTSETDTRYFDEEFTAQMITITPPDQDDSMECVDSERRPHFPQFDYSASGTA

SMILES: C[C@H]1CCCC(=O)CCC/C=C/c2cc(O)cc(O)c2C(=O)O1
residual activity ([1]; compound 10.0 µM): 95%
residual activity (AURKB (human); compound 1.0 µM): 37%
residual activity (AURKB (human); compound 10.0 µM): 23%
residual activity (CDK2 CCNA2 (human); compound 1.0 µM): 82%
residual activity (CDK2 CCNA2 (human); compound 10.0 µM): 32%
residual activity (CHEK1 (human); compound 1.0 µM): 92%
residual activity (CHEK1 (human); compound 10.0 µM): 81%
residual activity (CHEK2 (human); compound 1.0 µM): 93%
residual activity (CHEK2 (human); compound 10.0 µM): 73%
residual activity (CSK (human); compound 1.0 µM): 80%
residual activity (CSK (human); compound 10.0 µM): 64%
residual activity (CaMK1 (human); compound 1.0 µM): 101%
residual activity (CaMK1 (human); compound 10.0 µM): 75%
residual activity (DYRK3 (human); compound 1.0 µM): 100%
residual activity (DYRK3 (human); compound 10.0 µM): 62%
residual activity (EPHA2 (human); compound 1.0 µM): 69%
residual activity (EPHA2 (human); compound 10.0 µM): 26%
residual activity (EPHB3 (human); compound 1.0 µM): 85%
residual activity (EPHB3 (human); compound 10.0 µM): 85%
residual activity (IKBKB (human); compound 1.0 µM): 101%
residual activity (IKBKB (human); compound 10.0 µM): 78%
residual activity (LCK (mouse); compound 1.0 µM): 69%
residual activity (LCK (mouse); compound 10.0 µM): 26%
residual activity (MAP2K1 (human); compound 1.0 µM): 66%
residual activity (MAP2K1 (human); compound 10.0 µM): 55%
residual activity (MAPK8 (human); compound 1.0 µM): 88%
residual activity (MAPK8 (human); compound 10.0 µM): 80%
residual activity (MST4 (human); compound 10.0 µM): 66%
residual activity (MYLK (human); compound 1.0 µM): 104%
residual activity (MYLK (human); compound 10.0 µM): 59%
residual activity (PAK4 (human); compound 1.0 µM): 95%
residual activity (PAK4 (human); compound 10.0 µM): 90%
residual activity (PAK6 (human); compound 1.0 µM): 99%
residual activity (PAK6 (human); compound 10.0 µM): 94%
residual activity (PKN2 (human); compound 1.0 µM): 70%
residual activity (PKN2 (human); compound 10.0 µM): 33%
residual activity (ROCK2 (rat); compound 1.0 µM): 82%
residual activity (ROCK2 (rat); compound 10.0 µM): 81%
residual activity (RPS6KA3 KD1 KD2 (human); compound 1.0 µM): 80%
residual activity (RPS6KA3 KD1 KD2 (human); compound 10.0 µM): 52%
residual activity (SRC (human); compound 1.0 µM): 89%
residual activity (SRC (human); compound 10.0 µM): 34%
residual activity (TBK1 (human); compound 1.0 µM): 82%
residual activity (TBK1 (human); compound 10.0 µM): 80%

residual activity ([1]; compound 0.1 µM): 87%
residual activity ([1]; compound 1.0 µM): 69%
residual activity ([1]; compound 10.0 µM): 52%
residual activity (AURKB (human); compound 0.1 µM): 89%
residual activity (AURKB (human); compound 1.0 µM): 87%
residual activity (AURKB (human); compound 10.0 µM): 49%
residual activity (CDK2 CCNA2 (human); compound 1.0 µM): 101%
residual activity (CDK2 CCNA2 (human); compound 10.0 µM): 88%
residual activity (CHEK1 (human); compound 0.1 µM): 90%
residual activity (CHEK1 (human); compound 1.0 µM): 83%
residual activity (CHEK1 (human); compound 10.0 µM): 83%
residual activity (CHEK2 (human); compound 0.1 µM): 101%
residual activity (CHEK2 (human); compound 1.0 µM): 73%
residual activity (CHEK2 (human); compound 10.0 µM): 72%
residual activity (CSK (human); compound 0.1 µM): 94%
residual activity (CSK (human); compound 1.0 µM): 93%
residual activity (CSK (human); compound 10.0 µM): 98%
residual activity (CaMK1 (human); compound 0.1 µM): 106%
residual activity (CaMK1 (human); compound 10.0 µM): 78%
residual activity (DYRK3 (human); compound 0.1 µM): 106%
residual activity (DYRK3 (human); compound 1.0 µM): 92%
residual activity (DYRK3 (human); compound 10.0 µM): 83%
residual activity (EPHA2 (human); compound 0.1 µM): 95%
residual activity (EPHA2 (human); compound 1.0 µM): 86%
residual activity (EPHA2 (human); compound 10.0 µM): 89%
residual activity (EPHB3 (human); compound 0.1 µM): 132%
residual activity (EPHB3 (human); compound 1.0 µM): 139%
residual activity (EPHB3 (human); compound 10.0 µM): 101%
residual activity (IKBKB (human); compound 0.1 µM): 104%
residual activity (IKBKB (human); compound 1.0 µM): 119%
residual activity (IKBKB (human); compound 10.0 µM): 102%
residual activity (LCK (mouse); compound 0.1 µM): 91%
residual activity (LCK (mouse); compound 1.0 µM): 92%
residual activity (LCK (mouse); compound 10.0 µM): 88%
residual activity (MAP2K1 (human); compound 0.1 µM): 117%
residual activity (MAP2K1 (human); compound 1.0 µM): 104%
residual activity (MAP2K1 (human); compound 10.0 µM): 96%
residual activity (MAPK8 (human); compound 1.0 µM): 107%
residual activity (MAPK8 (human); compound 10.0 µM): 95%
residual activity (MST4 (human); compound 0.1 µM): 87%
residual activity (MST4 (human); compound 1.0 µM): 77%
residual activity (MST4 (human); compound 10.0 µM): 46%
residual activity (MYLK (human); compound 0.1 µM): 95%
residual activity (MYLK (human); compound 1.0 µM): 79%
residual activity (MYLK (human); compound 10.0 µM): 87%
residual activity (PAK4 (human); compound 0.1 µM): 93%
residual activity (PAK4 (human); compound 1.0 µM): 88%
residual activity (PAK4 (human); compound 10.0 µM): 88%
residual activity (PAK6 (human); compound 0.1 µM): 99%
residual activity (PAK6 (human); compound 1.0 µM): 83%
residual activity (PAK6 (human); compound 10.0 µM): 86%
residual activity (PKN2 (human); compound 0.1 µM): 95%
residual activity (PKN2 (human); compound 1.0 µM): 86%
residual activity (PKN2 (human); compound 10.0 µM): 84%
residual activity (ROCK2 (rat); compound 0.1 µM): 98%
residual activity (ROCK2 (rat); compound 1.0 µM): 91%
residual activity (ROCK2 (rat); compound 10.0 µM): 58%
residual activity (RPS6KA3 KD1 KD2 (human); compound 0.1 µM): 86%
residual activity (RPS6KA3 KD1 KD2 (human); compound 1.0 µM): 67%
residual activity (RPS6KA3 KD1 KD2 (human); compound 10.0 µM): 25%
residual activity (SRC (human); compound 0.1 µM): 103%
residual activity (SRC (human); compound 10.0 µM): 92%
residual activity (TBK1 (human); compound 0.1 µM): 108%
residual activity (TBK1 (human); compound 1.0 µM): 105%
residual activity (TBK1 (human); compound 10.0 µM): 97%
SMILES: CCc1cncnc1N1CCN(Cc2nc3cc(C(F)(F)F)ccc3[nH]2)CC1
